Experimental data: patent US20230047825A1, “ANTIMICROBIAL PEPTIDES” (priority 2019, published 2023)
Values after ≈ are worked out from the molar mass of the structure shown. Where two headings read alike, the source gives them in different places. Where a SMILES comes first, the peptide text is derived from it.

Key:
VRE12201 = assay: Antibacterial activity assay (broth microdilution MIC); format: cell-based, Enterococcus faecalis; conditions: medium and unit inferred
Excerpt: (§1) Antibacterial activity assay.
The bacterial strains used are as in the above examples. A table of strains is provided below to aid understanding.

A549 = assay: Cytotoxicity assay; format: cell-based; conditions: value printed in parentheses
[1] = tested on: Klebsiella pneumoniae NCTC 13368; format: cell-based; conditions: KP13368, in µg/mL
HeLa = assay: Cytotoxicity assay (XTT); format: cell-based, human; set-up: Toxicity HeLa: unit not given beside the values
Method: (§2) Cytotoxicity assay. HeLa and HEK293 cell lines were purchased from ECACC and cultured in Eagle's Minimum Essential Media (EMEM) containing glutamine, supplemented with 10% FBS and 1× non-essential amino acids (NEAA) at 37° C., 10% CO2. Cytotoxicity was measured by incubating starter cultures of cells for 24 hours in a 96 well plate, gently removing the supernatant and replacing it with dilutions of peptides and controls, incubating for a further 24 hours and then staining of the cells with the second generation tetrazolium dye, XTT. […]

Calu-3 = assay: Cytotoxicity assay; format: cell-based; conditions: value printed in parentheses
[2] = tested on: MS Staphylococcus aureus ATCC 9144; format: cell-based; conditions: MSSA9144
Klebsiella pneumoniae M6 = format: cell-based
[3] = tested on: VS Enterococcus faecalis NCTC 775; assay: Antibacterial activity assay (broth microdilution MIC); format: cell-based
P. aeruginosa RP73 = assay: as above; format: cell-based, Pseudomonas aeruginosa; conditions: in µg/mL
Method: as §1
Synergy experiments were performed following a checkerboard protocol.

[4] = tested on: VR Enterococcus faecium NCTC 12204; assay: as above; format: cell-based; conditions: VRE12204, in µg/mL
[5] = tested on: Escherichia coli NCTC 12923; format: cell-based; conditions: EC12923
[6] = tested on: EMR Staphylococcus aureus-16 (EMRSA-16); format: cell-based; conditions: EMRSA16
[7] = tested on: EMR Staphylococcus aureus-15 (EMRSA-15); format: cell-based
[8] = tested on: Pseudomonas aeruginosa PA01; assay: Antibacterial activity assay (broth microdilution MIC); format: cell-based
[9] = tested on: Acinetobacter baumannii AYE; format: cell-based; conditions: AYE
C. albicans = assay: MIC on initial panels, fungi; format: cell-based; conditions: unit inferred
[10] = tested on: Pseudomonas aeruginosa NCTC 13437; assay: Antibacterial activity assay (broth microdilution MIC); format: cell-based; conditions: PA13437, in µg/mL
HEK293 = assay: Cytotoxicity assay (XTT); format: cell-based, human
Method: as §2

[11] = tested on: Acinetobacter baumannii ATCC 17978; format: cell-based; conditions: in µg/mL; for MIC, Stability in serum (MH): Ab17978
human red blood cells = assay: Haemolysis assay; conditions: red cells of human, 1 h
Method: Haemolysis assay. Haemolysis was tested by incubating titrations of AMPs in PBS with freshly collected human red blood cells for 1 hour at 37 C. Control wells were treated with 0.1% Triton-X-100 to ensure complete lysis, or PBS-only to represent no lysis. Samples were spun down to remove non-lysed cells and the OD^550 of the supernatant was measured using a Clariostar plate reader. The percentage of haemolysis was calculated as % haemolysis=(AP−AB)/(AC−AB)×100, where AP is the absorbance value for a known peptide concentration, AC is the absorbance of the 0.1% Triton-X-100 control, AB is the absorbance of the PBS control. Data presented are averages and standard error from three biological replicate experiments.
Methods: The natural AMP (termed AMP1) was modified to produce synthetic variants, AMPs 1a, 2a, 2b, 3a and 3b. Minimum inhibitory concentrations (MICs) were determined using the microbroth dilution assay with Mueller Hinton broth (MHB) or RPMI (with 5% FBS) and stability in serum was tested by conducting MICs in MHB containing 10% FBS. Synergy experiments were performed following a checkerboard protocol. Cytotoxicity was tested against HEK293 and HeLa immortalised human cell-lines using the XTT viability stain and by quantifying haemolysis of human red blood cells. Patch clamp analysis was performed using the Port-a-Patch® automated patch-clamp system on DPhPE/DPhPG (model for a Gram-negative plasma membrane) or DPhPG (Gram-positive) model membranes challenged with peptide. The murine lung infection model was performed using the agar bead model with Staphylococcus aureus strain NCTC 13616 (EMRSA-15).

[12] = untitled table, medium/unit not given, values match RPMI of Table 2
[13] = untitled table, medium/unit not given, values match RPMI of Table 2, in µg/mL
[14] = medium and unit not given, in µg/mL
[15] = untitled table, medium/unit inferred, values match RPMI of Table 2

MIC on initial panels (VRE12201): 128 µg/mL (≈ 48.2 µM)
MIC, Stability in serum (MH) ([1]; No serum): 8
MIC, Stability in serum (MH) ([1]; Serum (10% fetal bovine serum)): 8-32
MIC on initial panels ([1]; medium and unit not given): 8
MIC [1, 12]: 32
MIC on initial panels ([2]; medium and unit inferred): 4 µg/mL (≈ 1.51 µM)
MIC [2, 13]: 8
MIC, Stability in serum (MH) (Klebsiella pneumoniae M6; No serum): 4 µg/mL (≈ 1.51 µM)
MIC, Stability in serum (MH) (Klebsiella pneumoniae M6; Serum (10% fetal bovine serum)): 8 µg/mL (≈ 3.01 µM)
MIC on initial panels (Klebsiella pneumoniae M6; [14]): 4
MIC (Klebsiella pneumoniae M6; [13]): 32
MIC, Peptide concentration ([3]; Mueller-Hinton broth): 64 (NG) μg/ml
MIC on initial panels ([3]; VSE775, medium and unit not given, in µg/mL): 64
MIC on initial panels (P. aeruginosa RP73; medium and unit not given): 16-64
MIC (P. aeruginosa RP73; untitled table, medium/unit not given): 32-64
MIC on initial panels ([4]; medium and unit not given): 16
MIC [4, 12]: 32-64
MIC, Stability in serum (MH) ([5]; No serum): 1 µg/mL (≈ 0.377 µM)
MIC, Stability in serum (MH) ([5]; Serum (10% fetal bovine serum)): 1 µg/mL (≈ 0.377 µM)
MIC on initial panels [5, 14]: 1
MIC [5, 13]: 8
MIC on initial panels [6, 14]: 64
MIC [6, 15]: 32 µg/mL (≈ 12.1 µM)
MIC, Peptide concentration ([7]; EMR -15 (EMRSA-15)): 8 µg/mL (≈ 3.01 µM)
MIC on initial panels ([7]; EMRSA15, medium and unit inferred): 32 µg/mL (≈ 12.1 µM)
MIC ([7]; EMRSA15, untitled table, medium/unit inferred, values match RPMI of Table 2): 8 µg/mL (≈ 3.01 µM)
MIC, Peptide concentration ([7]; Mueller-Hinton broth): 32 µg/mL (≈ 12.1 µM)
MIC, Stability in serum (MH) ([8]; No serum, in µg/mL): 4
MIC, Stability in serum (MH) ([8]; Serum (10% fetal bovine serum), in µg/mL): 16
MIC on initial panels [8, 14]: 4
MIC [8, 15]: 32 µg/mL (≈ 12.1 µM)
MIC, Stability in serum (MH) ([9]; No serum): 1 µg/mL (≈ 0.377 µM)
MIC, Stability in serum (MH) ([9]; Serum (10% fetal bovine serum)): 2 µg/mL (≈ 0.754 µM)
MIC on initial panels [9, 14]: 1
MIC [9, 13]: 8-32
MIC on initial panels, Fungi (C. albicans): 8 µg/mL (≈ 3.01 µM)
MIC, Stability in serum (MH) ([10]; No serum): 32
MIC, Stability in serum (MH) ([10]; Serum (10% fetal bovine serum)): 32
MIC on initial panels ([10]; medium and unit not given): 32
MIC [10, 12]: >32
MIC on initial panels ([11]; AB17978, medium and unit not given): 1
MIC ([11]; AB17978, untitled table, medium/unit not given, values match RPMI of Table 2): 16
MIC, Stability in serum (MH) ([11]; No serum): 1
MIC, Stability in serum (MH) ([11]; Serum (10% fetal bovine serum)): 2-16
Structure (SMILES): CC(C)C[C@@H](NC(=O)[C@@H](Cc1ccc(O)cc1)NC(=O)[C@@H](Cc1c[nH]cn1)NC(=O)[C@H](NC(=O)[C@@H](CC(C)C)NC(=O)[C@@H](C)NC(=O)[C@@H](C)NC(=O)[C@@H](CCCCN)NC(=O)CNC(=O)[C@@H](C)NC(=O)[C@@H](Cc1c[nH]cn1)NC(=O)[C@@H](CCCCN)NC(=O)CNC(=O)[C@@H](C)NC(=O)[C@@H](Cc1c[nH]cn1)NC(=O)[C@@H](C)NC(=O)[C@@H](C)NC(=O)[C@@H](CCCCN)NC(=O)[C@@H](CCCCN)NC(=O)[C@@H](Cc1ccccc1)NC(=O)[C@@H](Cc1ccccc1)NC(=O)[C@@H](CO)NC(=O)CNC(=O)[C@@H](Cc1c[nH]c2ccccc12)NC(=O)CN)[C@H](C)O)C(N)=O [D-pleurocidin-VA] (HELM PEPTIDE1{G.[dW].G.[dS].[dF].[dF].[dK].[dK].[dA].[dA].[dH].[dA].G.[dK].[dH].[dA].G.[dK].[dA].[dA].[dL].[dT].[dH].[dY].[dL].[am]}$$$$V2.0; N-terminus assumed)
Toxicity A549 (EC50), Peptide concentration (A549): (>250) μg/ml
Toxicity HeLa (HeLa; unit not given): 198.2 ± 10.2
Toxicity HeLa (EC50), Peptide concentration (HeLa; value printed in parentheses): (198.2 ± 10.2) μg/ml
Toxicity Calu-3 (EC50), Peptide concentration (Calu-3): (>250) μg/ml
Toxicity HEK293 (HEK293; unit not given): 217.3 ± 46.5
Toxicity HEK293 (EC50), Peptide concentration (HEK293; value printed in parentheses): (217.3 ± 46.5) μg/ml
Toxicity HC50, Peptide concentration (human red blood cells): >>400 μg/ml
